Source: patent publication EP3478687B1 (Daewoong Pharmaceutical Co., Ltd., priority 2016, dated 2018)
Where a name gives a salt, the structure may show the parent alone.

How the values were obtained:
[1] = biological target: T1, Recombinant purified human BTK (Homo sapiens, UniProt Q06187); assay: BTK kinase inhibitory activity, ADP-Glo kinase assay (Promega V9071); type: biochemical; conditions: ATP 10 uM, 8 ng BTK per reaction, 1 hour 30 °C, chemiluminescence
T1 construct: purchased Promega V9071
T1 sequence (Q06187 whole entry): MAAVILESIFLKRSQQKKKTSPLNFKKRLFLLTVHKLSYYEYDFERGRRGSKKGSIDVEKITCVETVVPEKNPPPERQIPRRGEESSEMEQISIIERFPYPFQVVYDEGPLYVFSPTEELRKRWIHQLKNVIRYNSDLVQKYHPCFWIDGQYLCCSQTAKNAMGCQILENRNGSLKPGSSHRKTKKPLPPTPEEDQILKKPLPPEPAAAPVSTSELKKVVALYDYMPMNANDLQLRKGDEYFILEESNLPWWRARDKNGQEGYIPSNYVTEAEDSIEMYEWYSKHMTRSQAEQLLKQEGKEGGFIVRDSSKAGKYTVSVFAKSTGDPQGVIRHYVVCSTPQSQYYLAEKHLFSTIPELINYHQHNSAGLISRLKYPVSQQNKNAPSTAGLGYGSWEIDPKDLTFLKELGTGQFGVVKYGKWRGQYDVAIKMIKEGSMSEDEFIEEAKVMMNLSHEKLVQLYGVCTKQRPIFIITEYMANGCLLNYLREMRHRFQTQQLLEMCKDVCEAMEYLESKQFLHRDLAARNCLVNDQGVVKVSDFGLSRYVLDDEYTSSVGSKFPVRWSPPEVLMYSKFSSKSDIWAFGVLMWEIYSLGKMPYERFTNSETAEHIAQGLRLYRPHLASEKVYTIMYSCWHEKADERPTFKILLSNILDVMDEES
Method in brief: (§1)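 IC50 values come from ADP-Glo luminescence after 1 h kinase reactions at 30 °C in 1% DMSO on 0.2 µg/µL Poly(Glu4,Tyr1) substrate. ATP was 10 µM for BTK (8 ng, buffer containing MnCl2) and 5 µM for JAK3 (4 ng), in Tris-Cl pH 7.5/MgCl2/BSA/DTT.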

[2] = biological target: T2, Recombinant purified human JAK3 (Homo sapiens, UniProt P52333); assay: JAK3 kinase inhibitory activity, ADP-Glo kinase assay (Promega V9441); type: biochemical; conditions: ATP 5 uM, 4 ng JAK3 per reaction, 1 hour 30 °C, chemiluminescence
T2 construct: purchased Promega V9441
T2 sequence (P52333 1-1124): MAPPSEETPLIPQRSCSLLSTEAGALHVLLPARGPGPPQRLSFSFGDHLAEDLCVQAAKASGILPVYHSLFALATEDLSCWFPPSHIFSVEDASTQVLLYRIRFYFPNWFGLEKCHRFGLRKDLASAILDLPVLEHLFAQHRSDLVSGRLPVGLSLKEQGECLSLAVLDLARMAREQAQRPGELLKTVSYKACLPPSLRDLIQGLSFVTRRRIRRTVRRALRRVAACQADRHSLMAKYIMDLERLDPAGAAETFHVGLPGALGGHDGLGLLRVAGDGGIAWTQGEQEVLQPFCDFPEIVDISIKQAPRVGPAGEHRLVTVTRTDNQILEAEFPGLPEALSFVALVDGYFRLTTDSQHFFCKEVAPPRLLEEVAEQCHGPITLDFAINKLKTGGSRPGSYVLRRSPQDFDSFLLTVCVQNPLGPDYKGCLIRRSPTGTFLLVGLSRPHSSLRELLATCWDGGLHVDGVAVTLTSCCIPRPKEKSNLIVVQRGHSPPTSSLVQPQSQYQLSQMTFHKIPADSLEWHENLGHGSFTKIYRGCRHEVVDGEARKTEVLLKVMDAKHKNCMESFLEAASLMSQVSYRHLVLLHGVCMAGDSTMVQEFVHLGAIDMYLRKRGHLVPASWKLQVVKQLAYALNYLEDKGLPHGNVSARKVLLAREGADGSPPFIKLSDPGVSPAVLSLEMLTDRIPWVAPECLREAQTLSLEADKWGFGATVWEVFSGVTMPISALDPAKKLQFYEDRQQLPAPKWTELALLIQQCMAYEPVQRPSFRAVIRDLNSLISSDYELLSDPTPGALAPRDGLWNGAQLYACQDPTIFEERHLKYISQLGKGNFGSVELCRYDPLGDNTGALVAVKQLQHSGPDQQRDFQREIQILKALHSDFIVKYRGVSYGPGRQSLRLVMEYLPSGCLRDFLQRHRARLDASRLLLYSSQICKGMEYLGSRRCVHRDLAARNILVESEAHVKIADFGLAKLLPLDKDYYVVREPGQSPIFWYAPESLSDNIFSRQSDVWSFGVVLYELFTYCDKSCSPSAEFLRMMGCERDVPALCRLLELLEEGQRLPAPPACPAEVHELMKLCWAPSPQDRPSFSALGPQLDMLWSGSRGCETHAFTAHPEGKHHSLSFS
Method in brief: as §1

Compound	IC50 [1]	IC50 [2]
C=CC(=O)N1CCC[C@@H](N(C)c2nc(Nc3cnn(CC)c3)nc3[nH]cc(F)c23)C1 [Example 87, (R)-1-(3-((2-((1-ethyl-1H-pyrazol-4-yl)amino)-5-fluoro-7H-pyrrolo[2,3-d]pyrimidin-4-yl)(methyl)amino)piperidin-1-yl)prop-2-en-1-one]	42.2 nM	16.4 nM
C=CC(=O)N1CCC[C@@H](Nc2nc(Nc3cnn(CC)c3)nc3[nH]nc(Cl)c23)C1 [Example 91, (R)-1-(3-((3-chloro-6-((1-ethyl-1H-pyrazol-4-yl)amino)-1H-pyrazolo[3,4-d]pyrimidin-4-yl)amino)piperidin-1-yl)prop-2-en-1-one hydrochloride]	1.1 nM	1.1 nM
C=CC(=O)N1CC[C@@H](C)[C@@H](Nc2nc(Nc3cnn(CC)c3)nc3[nH]nc(Cl)c23)C1 [Example 92, 1-((3R,4R)-3-((3-chloro-6-((1-ethyl-1H-pyrazol-4-yl)amino)-1H-pyrazolo[3,4-d]pyrimidin-4-yl)amino)-4-methylpiperidin-1-yl)prop-2-en-1-one]	2.1 nM	4.5 nM
C=CC(=O)N1CCC[C@@H](Nc2nc(Nc3cnn(CCN(CC)CC)c3)nc3[nH]cc(Cl)c23)C1 [Example 95, (R)-1-(3-((5-chloro-2-((1-(2-(diethylamino)ethyl)-1H-pyrazol-4-yl)amino)-7H-pyrrolo[2,3-d]pyrimidin-4-yl)amino)piperidin-1-yl)prop-2-en-1-one]	5.9 nM	0.5 nM
C=CC(=O)N1CCC[C@@H](Nc2nc(Nc3cnoc3)nc3[nH]cc(Cl)c23)C1 [Example 96, (R)-1-(3-((5-chloro-2-(isoxazol-4-ylamino)-7H-pyrrolo[2,3-d]pyrimidin-4-yl)amino)piperidin-1-yl)prop-2-en-1-one]	24 nM	0.7 nM
C=CC(=O)N1CCC[C@@H](Nc2nc(Nc3ccc(N4CCOCC4)cc3F)nc3[nH]cc(Cl)c23)C1 [Example 97]	708 nM	> 80 nM
C=CC(=O)N1CCC[C@@H](Nc2nc(Nc3ccc(N4CCOCC4)c(F)c3)nc3[nH]cc(Cl)c23)C1 [Example 98, (R)-1-(3-((5-chloro-2-((3-fluoro-4-morpholinophenyl)amino)-7H-pyrrolo [2,3-d]pyrimidin-4-yl)amino)piperidin-1-yl)prop-2-en-1-one]	14.1 nM	2.4 nM
C=CC(=O)N1CCC[C@@H](N(C)c2nc(Nc3cnn(CC)c3)nc3[nH]ccc23)C1 [Example 101, (R)-1-(3-((2-((1-ethyl-1H-pyrazol-4-yl)amino)-7H-pyrrolo[2,3-d]pyrimidin-4-yl)(methyl)amino)piperidin-1-yl)prop-2-en-1-one]	7.4 nM	1.8 nM
C=CC(=O)N1CCC[C@@H](N(C)c2nc(Nc3cnoc3)nc3[nH]ccc23)C1 [Example 102]	146 nM	13.2 nM
C=CC(=O)N1CCC[C@@H](N(C)c2nc(Nc3cnn(CC(F)F)c3)nc3[nH]ccc23)C1 [Example 103, (R)-1-(3-((2-((1-(2,2-difluoroethyl)-1H-pyrazol-4-yl)amino)-7H-pyrrolo[2,3-d]pyrimidin-4-yl)(methyl)amino)piperidin-1-yl)prop-2-en-1-one]	21 nM	1.3 nM
C=CC(=O)N1CCC[C@@H](Sc2nc(Nc3cnn(CC)c3)nc3[nH]ccc23)C1 [Example 104, (R)-1-(3-((2-((1-ethyl-1H-pyrazol-4-yl)amino)-7H-pyrrolo[2,3-d]pyrimidin-4-yl)thio)piperidin-1-yl)prop-2-en-1-one]	2.7 nM	0.3 nM
C=CC(=O)N1CCC[C@@H](Sc2nc(Nc3cnn(CC)c3)nc3[nH]ncc23)C1 [Example 105, (R)-1-(3-((6-((1-ethyl-1H-pyrazol-4-yl)amino)-1H-pyrazolo [3,4-d]pyrimidin-4-yl)thio)piperidin-1-yl)prop-2-en-1-one]	1.9 nM	3.6 nM
C=CC(=O)N1CC[C@@H](C)[C@@H](Nc2nc(Nc3cnn(CC)c3)nc3[nH]ncc23)C1 [Example 106, 1-((3R,4R)-3-((6-((1-ethyl-1H-pyrazol-4-yl)amino)-1H-pyrazolo [3,4-d]pyrimidin-4-yl)amino)-4-methylpiperidin-1-yl)prop-2-en-1-one]	1.8 nM	54.8 nM
C=CC(=O)N1CCC[C@@H](Sc2nc(Nc3cnn(C(C)(C)C)c3)nc3[nH]nc(Cl)c23)C1 [Example 112, (R)-1-(3-((6-((1-(tert-butyl)-1H-pyrazol-4-yl)amino)-3-chloro-1H-pyrazolo [3,4-d]pyrimidin-4-yl)thio)piperidin-1-yl)prop-2-en-1-one]	1.8 nM	1.6 nM
C=CC(=O)N1CCC[C@@H](Sc2nc(Nc3cnn(CC(C)C)c3)nc3[nH]nc(Cl)c23)C1 [Example 113, (R)-1-(3-((3-chloro-6-((1-isobutyl-1H-pyrazol-4-yl)amino)-1H-pyrazolo[3,4-d]pyrimidin-4-yl)thio)piperidin-1-yl)prop-2-en-1-one]	2.3 nM	2.8 nM

Further molecules by falling IC50 [1], results first:

IC50 [1]	IC50 [2]	Compound
1.7 nM	4.5 nM	C=CC(=O)N1CC[C@@H](C)[C@@H](Nc2nc(Nc3cnn(C4CC4)c3)nc3[nH]nc(Cl)c23)C1 [Example 94, 1-((3R,4R)-3-((3-chloro-6-((1-cyclopropyl-1H-pyrazol-4-yl)amino)-1H-pyrazolo[3,4-d]pyrimidin-4-yl)amino)-4-methylpiperidin-1-yl)prop-2-en-1-one]
1.4 nM	1.7 nM	C=CC(=O)N1CCC[C@@H](Sc2nc(Nc3cnn(C4CC4)c3)nc3[nH]nc(Cl)c23)C1 [Example 110]
1.3 nM	2 nM	C=CC(=O)N1CC[C@@H](C)[C@@H](Nc2nc(Nc3cnn(CC(F)F)c3)nc3[nH]nc(Cl)c23)C1 [Example 93, 1-((3R,4R)-3-((3-chloro-6-((1-(2,2-difluoroethyl)-1H-pyrazol-4-yl)amino)-1H-pyrazolo [3,4-d]pyrimidin-4-yl)amino)-4-methylpiperidin-1-yl)prop-2-en-1-one]
1.3 nM	0.6 nM	C=CC(=O)N1CCC[C@@H](Sc2nc(Nc3cnn(CC(F)F)c3)nc3[nH]nc(Cl)c23)C1 [Example 108]
1.3 nM	1.1 nM	C=CC(=O)N1CCC[C@@H](Sc2nc(Nc3cnn(CC)c3)nc3[nH]nc(Cl)c23)C1 [Example 111, (R)-1-(3-((3-chloro-6-((1-ethyl-1H-pyrazol-4-yl)amino)-1H-pyrazolo[3,4-d]pyrimidin-4-yl)thio)piperidin-1-yl)prop-2-en-1-one]
1.1 nM	0.2 nM	C=CC(=O)N1CCC[C@@H](Nc2nc(Nc3cnn(CC)c3)nc3[nH]cc(C#N)c23)C1 [Example 88, (R)-4-((1-acryloylpiperidin-3-yl)amino)-2-((1-ethyl-1H-pyrazol-4-yl)amino)-7H-pyrrolo [2,3-d] pyrim idine-5-carbonitrile]
1 nM	0.4 nM	C=CC(=O)N1CC[C@@H](F)[C@@H](Nc2nc(Nc3cnn(CC)c3)nc3[nH]cc(F)c23)C1 [Example 86, 1-((3S,4R)-3-((2-((1-ethyl-1H-pyrazol-4-yl)amino)-5-fluoro-7H-pyrrolo[2,3-d]pyrimidin-4-yl)amino)-4-fluoropiperidin-1-yl)prop-2-en-1-one]
1 nM	0.5 nM	C=CC(=O)N1CCC[C@@H](Nc2nc(Nc3cnn(CC(F)F)c3)nc3[nH]nc(Cl)c23)C1 [Example 90, (R)-1-(3-((3-chloro-6-((1-(2,2-difluoroethyl)-1H-pyrazol-4-yl)amino)-1H-pyrazolo [3,4-d]pyrimidin-4-yl)amino)piperidin-1-yl)prop-2-en-1-one hydrochloride]
0.864 nM	0.138 nM	C=CC(=O)N1CCC[C@@H](Nc2nc(Nc3cnn(C4CC4)c3)nc3[nH]cc(C#N)c23)C1 [Example 89, (R)-4-((1-acryloylpiperidin-3-yl)amino)-2-((1-cyclopropyl-1H-pyrazol-4-yl)amino)-7H-pyrrolo[2,3-d]pyrimidine-5-carbonitrile]
